Results reported in patent US20220061324A1, “PESTICIDALLY ACTIVE HETEROCYCLIC DERIVATIVES WITH SULFUR CONTAINING SUBSTITUENTS” (SYNGENTA CROP PROTECTION AG, priority 2018, published 2022).

How the values were obtained:
[1] = system: Myzus persicae (Green Peach Aphid); experiment: Activity against Myzus persicae (green peach aphid), feeding/contact activity; format: in vivo; settings: 144 h, application rate 200 ppm, feeding/contact, mixed ages, 6 days after infestation, read-out: mortality
Procedure: Example B4: Activity Against Myzus persicae (Green Peach Aphid) Feeding/Contact Activity
Sunflower leaf discs were placed onto agar in a 24-well microtiter plate and sprayed with aqueous test solutions prepared from 10,000 ppm DMSO stock solutions. After drying, the leaf discs were infested with an aphid population of mixed ages. The samples were assessed for mortality 6 days after infestation.

[2] = system: Plutella xylostella (Diamond Back Moth); experiment: Activity against Plutella xylostella (diamond back moth), artificial diet; format: in vivo; settings: 192 h, application rate 200 ppm, eggs, 8 days after infestation, read-out: effect in at least one of the two categories (mortality or growth inhibition)
Procedure: Example B3: Activity Against Plutella xylostella (Diamond Back Moth)
24-well microtiter plates with artificial diet were treated with aqueous test solutions prepared from 10,000 ppm DMSO stock solutions by pipetting. After drying, Plutella eggs were pipetted through a plastic stencil onto a gel blotting paper and the plate was closed with it. The samples were assessed for mortality and growth inhibition in comparison to untreated samples 8 days after infestation.

[3] = system: Bemisia tabaci (Cotton White Fly); experiment: Activity against Bemisia tabaci (cotton white fly), cotton leaf discs; format: in vivo; settings: foliar, 144 h, application rate 200 ppm, adult white flies, 6 days after incubation
Procedure: Example B6: Activity Against Bemisia tabaci (Cotton White Fly)
Cotton leaf discs were placed on agar in 24-well microtiter plates and sprayed with aqueous test solutions prepared from 10,000 ppm DMSO stock solutions. After drying the leaf discs were infested with adult white flies. The samples were checked for mortality 6 days after incubation.

[4] = system: Frankliniella occidentalis (Western Flower Thrips); experiment: Activity against Frankliniella occidentalis (western flower thrips), sunflower leaf discs; format: in vivo; settings: foliar, 168 h, application rate 200 ppm, mixed ages, 7 days after infestation
Procedure: Example B7: Activity Against Frankliniella occidentalis (Western Flower Thrips)
Sunflower leaf discs were placed on agar in 24-well microtiter plates and sprayed with aqueous test solutions prepared from 10,000 DMSO stock solutions. After drying the leaf discs were infested with a Frankliniella population of mixed ages. The samples were assessed for mortality 7 days after infestation.

[5] = system: Diabrotica balteata (Corn Root Worm); experiment: Activity against Diabrotica balteata (corn root worm), maize sprouts sprayed; format: in vivo; settings: 96 h, application rate 200 ppm, L2 larvae, 4 days after infestation, read-out: effect in at least one of the two categories (mortality or growth inhibition)
Procedure: Example B1: Activity Against Diabrotica balteata (Corn Root Worm)
Maize sprouts placed onto an agar layer in 24-well microtiter plates were treated with aqueous test solutions prepared from 10,000 ppm DMSO stock solutions by spraying. After drying, the plates were infested with L2 larvae (6 to 10 per well). The samples were assessed for mortality and growth inhibition in comparison to untreated samples 4 days after infestation.

[6] = system: Spodoptera littoralis (Egyptian Cotton Leaf Worm); experiment: Activity against Spodoptera littoralis (Egyptian cotton leaf worm), cotton leaf discs; format: in vivo; settings: foliar, 72 h, application rate 200 ppm, L1 larvae, 3 days after infestation, read-out: control (mortality, anti-feedant effect or growth inhibition)
Procedure: Example B5: Activity Against Spodoptera littoralis (Egyptian Cotton Leaf Worm)
Cotton leaf discs were placed onto agar in 24-well microtiter plates and sprayed with aqueous test solutions prepared from 10,000 ppm DMSO stock solutions. After drying the leaf discs were infested with five L1 larvae. The samples were assessed for mortality, anti-feeding effect, and growth inhibition in comparison to untreated samples 3 days after infestation. Control of Spodoptera littoralis by a test sample is given when at least one of the categories mortality, anti-feedant effect, and growth inhibition is higher than the untreated sample.

[7] = system: Euschistus heros (Neotropical Brown Stink Bug); experiment: Activity against Euschistus heros (neotropical brown stink bug), soybean leaves sprayed; format: in vivo; settings: 120 h, application rate 200 ppm, N2 nymphs, 5 days after infestation, read-out: effect in at least one of the two categories (mortality or growth inhibition)
Procedure: Example B2: Activity Against Euschistus heros (Neotropical Brown Stink Bug)
Soybean leaves on agar in 24-well microtiter plates were sprayed with aqueous test solutions prepared from 10,000 ppm DMSO stock solutions. After drying the leaves were infested with N2 nymphs. The samples were assessed for mortality and growth inhibition in comparison to untreated samples 5 days after infestation.

[8] = system: Myzus persicae (Green Peach Aphid); experiment: Activity against Myzus persicae (green peach aphid), systemic activity, pea seedlings; format: in vivo; settings: 144 h, test rate 24 ppm, roots in test solution, 6 days
Procedure: Example B8: Activity Against Myzus persicae (Green Peach Aphid) Systemic Activity
Roots of pea seedlings infested with an aphid population of mixed ages were placed directly into aqueous test solutions prepared from 10,000 DMSO stock solutions. The samples were assessed for mortality 6 days after placing seedlings into test solutions.

Row | SMILES | mortality at 200 ppm [1] [%] | percent effect (mortality or growth inhibition) at 200 ppm [2] [%] | mortality at 200 ppm [3] [%] | mortality at 200 ppm [4] [%] | percent effect (mortality or growth inhibition) at 200 ppm [5] [%] | percent control (mortality, anti-feedant effect or growth inhibition) at 200 ppm [6] [%] | percent effect (mortality or growth inhibition) at 200 ppm [7] [%] | melting point [°C] | mortality at 24 ppm [8] [%]
1 | CCS(=O)(=O)c1cc(OC(C)(C)C#N)cnc1-c1ncc2c(OCC(F)(F)C(F)(F)F)nccn12 [Compound P51, 2-[[5-ethylsulfonyl-6-[8-(2,2,3,3,3-pentafluoropropoxy)imidazo [1,5-a]pyrazin-3-yl]-3-pyridyl]oxy]-2-methyl-propanenitrile] | ≥ 80 | ≥ 80 | ≥ 80 | ≥ 80 | ≥ 80 | ≥ 80 | ≥ 80 | – | –
2 | CCS(=O)(=O)c1ccc(-n2cncn2)nc1-c1ncc2c(OCC(F)(F)C(F)(F)F)nccn12 [Compound P12, 3-[3-ethylsulfonyl-6-(1,2,4-triazol-1-yl)-2-pyridyl]-8-(2,2,3,3,3-penta-fluoropropoxy)imidazo [1,5-a]pyrazine] | ≥ 80 | ≥ 80 | ≥ 80 | – | ≥ 80 | ≥ 80 | ≥ 80 | – | –
3 | CCS(=N)(=O)c1cc(OC(C)(C)C#N)cnc1-c1ncc2c(OCC(F)(F)C(F)(F)F)nccn12 (stereo not shown) [Compound P52, 2-[[5-(ethylsulfonimidoyl)-6-[8-(2,2,3,3,3-penta-fluoropropoxy)imidazo [1,5-a]pyrazin-3-yl]-3-pyridyl]oxy]-2-methyl-propanenitrile] | ≥ 80 | ≥ 80 | ≥ 80 | – | ≥ 80 | ≥ 80 | – | – | –
4 | CCS(=O)(=O)c1ccc(Cl)nc1-c1ncc2c(OCC(F)(F)C(F)(F)F)nccn12 | – | – | – | – | – | – | – | 140 to 143 | –
5 | CCS(=O)(=O)c1cc(N(C)C(C)=O)cnc1-c1ncc2c(OCC(F)(F)C(F)(F)F)nccn12 [Compound P13, N-[5-ethylsulfonyl-6-[8-(2,2,3,3,3-penta-fluoropropoxy)imidazo [1,5-a]pyrazin-3-yl]-3-pyridyl]-N-methyl-acetamide] | ≥ 80 | ≥ 80 | – | – | ≥ 80 | ≥ 80 | ≥ 80 | – | ≥ 80
